Target: T1, human MC5R (Homo sapiens, UniProt P33032)
T1 construct: purchased Perkin Elmer RBXMC5M400UA
Assay: Human MC5R radioligand binding assay ([125I] NDP-MSH displacement, hMC5R membranes)
Conditions: hMC5R assay as in Example 102; compounds tested as trifluoroacetate or hydrochloride salts, or as free base
Protocol: After incubation for 10 mins the phosphate buffer containing the iodine was added to NDP-MSH (10 ul at 1 mg/mL) in a separate eppendorf tube. This was incubated for a further 10 mins.
Resuspended membranes were kept on ice until they were added to the wells of the plate.
Assays were performed in 96 well polypropylene plates. […] This was incubated for 1 hr at 37 °C. Non-specific binding was determined with […] NDP-MSH. Plates were filtered using a Tomtec cell harvester with GF/A filters (Wallac) (presoaked in 0.6% polyethylenimine) and washed three times with 1.0 mL ice-cold wash buffer (the above incubation buffer without 1,10-phenanthroline and Complete™ protease inhibitor tablet). The filters were dried in a 37 °C oven, placed in a sample bag and 5 mL Betaplatescint (Wallac) was added. Prepared filters were counted in cassettes in a Microbeta Trilux (Wallac) for 1 min. […] Data analysis was performed using GraphPad Prism 4, employing competition binding with a single site model and a fixed Hill coefficient. The following equation was used: Y = Bottom + (Top-Bottom)/1/10^(X-logEC50), where X = log(concentration) and Y = binding to fit the data.

T1 sequence (P33032 whole entry): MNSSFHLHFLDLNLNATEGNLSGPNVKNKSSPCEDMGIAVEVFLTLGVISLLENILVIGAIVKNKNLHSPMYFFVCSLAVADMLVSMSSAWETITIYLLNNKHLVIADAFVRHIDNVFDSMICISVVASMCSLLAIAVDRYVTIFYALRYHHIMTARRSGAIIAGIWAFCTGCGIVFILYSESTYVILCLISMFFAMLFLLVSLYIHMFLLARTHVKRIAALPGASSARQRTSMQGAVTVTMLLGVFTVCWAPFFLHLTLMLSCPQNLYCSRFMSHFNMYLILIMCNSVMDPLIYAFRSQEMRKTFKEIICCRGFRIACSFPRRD

Row | Structure (SMILES) | IC50 [nM]
1 | N=C(N)NCCC[C@@H]1N[C@H](CNC(=O)C2CCc3ccccc3C2)CCN(CC(c2ccccc2)c2ccccc2)C1=O (stereo partly drawn) [Compound 111, N-(((3S,5S)-1-(2,2-diphenylethyl)-3-(3-guanidinopropyl)-2-oxo-1,4-diazepan-5-yl)methyl)-1,2,3,4-tetrahydronaphthalene-2-carboxamide] | < 100
2 | CCC(CC)CN1CC[C@@H](CNC(=O)c2ccc(Cl)c(Cl)c2)N[C@@H](CCN)C1=O [Compound 346, N-(((3S,5S)-3-(2-aminoethyl)-1-(2-ethylbutyl)-2-oxo-1,4-diazepan-5-yl)methyl)-3,4-dichlorobenzamide] | < 1000
3 | O=C(NC[C@@H]1CCN(CC(c2ccccc2)c2ccccc2)C(=O)[C@H](CCN2CCCCC2)N1)c1ccc(Cl)c(Cl)c1 [Compound 284, 3,4-dichloro-N-(((3S,5S)-1-(2,2-diphenylethyl)-2-oxo-3-(2-(piperidin-1-yl)ethyl)-1,4-diazepan-5-yl)methyl)benzamide] | < 10
4 | N=C(N)NCCC[C@@H]1N[C@H](CNC(=O)c2ccc3[nH]cnc3c2)CCN(CC(c2ccccc2)c2ccccc2)C1=O [Compound 149, N-(((3S,5S)-1-(2,2-diphenylethyl)-3-(3-guanidinopropyl)-2-oxo-1,4-diazepan-5-yl)methyl)-1H-benzo[d]imidazole-5-carboxamide] | < 10000
5 | COc1ccc2cc(C(=O)NC[C@@H]3CCN(CC(c4ccccc4)c4ccccc4)C(=O)[C@H](CCCNC(=N)N)N3)ccc2c1 [Compound 158, N-(((3S,5S)-1-(2,2-diphenylethyl)-3-(3-guanidinopropyl)-2-oxo-1,4-diazepan-5-yl)methyl)-6-methoxy-2-naphthamide] | < 100
6 | CNC(=N)NCCC[C@@H]1N[C@H](CNC(=O)c2ccc3ccccc3c2)CCN(CC(c2ccccc2)c2ccccc2)C1=O [Compound 67, N-(((3S,5S)-1-(2,2-diphenylethyl)-3-(3-(3-methylguanidino)propyl)-2-oxo-1,4-diazepan-5-yl)methyl)-2-naphthamide] | < 10
7 | NCCCC[C@@H]1N[C@H](CNC(=O)c2ccc3ccccc3c2)CCN(Cc2cccc3ccccc23)C1=O [Compound 117, N-(((3S,5S)-3-(4-aminobutyl)-1-(naphthalen-1-ylmethyl)-2-oxo-1,4-diazepan-5-yl)methyl)-2-naphthamide] | < 1000
8 | Cc1ccc(C(=O)NC[C@@H]2CCN(CC(c3ccccc3)c3ccccc3)C(=O)[C@H](CCCNC(=N)N)N2)cc1C [Compound 144, N-(((3S,5S)-1-(2,2-diphenylethyl)-3-(3-guanidinopropyl)-2-oxo-1,4-diazepan-5-yl)methyl)-3,4-dimethylbenzamide] | < 100
9 | N=C(N)NCCC[C@@H]1N[C@H](CNC(=O)c2cnc3ccccc3n2)CCN(CC(c2ccccc2)c2ccccc2)C1=O [Compound 113, N-(((3S,5S)-1-(2,2-diphenylethyl)-3-(3-guanidinopropyl)-2-oxo-1,4-diazepan-5-yl)methyl)quinoxaline-2-carboxamide] | < 1000
10 | NCC[C@@H]1N[C@H](CNC(=O)c2ccc3ccccc3c2)CCN(Cc2cc(Cl)cc(Cl)c2)C1=O [Compound 49, (3S,5S)-3-(2-aminoethyl)-5-(2-naphthoylaminomethyl)-1-(3,5-dichlorobenzyl)-1,4-diazepan-2-one] | < 1000
11 | O=C(/C=C/c1ccc(Cl)cc1)NC[C@@H]1CCN(Cc2cc(Cl)cc(Cl)c2)C(=O)[C@H](CCN2CCCCC2)N1 [Compound 345, (E)-3-(4-chlorophenyl)-N-(((3S,5S)-1-(3,5-dichlorobenzyl)-2-oxo-3-(2-(piperidin-1-yl)ethyl)-1,4-diazepan-5-yl)methyl)acrylamide] | < 10

The next lines start with the values.

Row | IC50 [nM] | Structure (SMILES)
12 | < 1000 | N#Cc1ccc(/C=C/C(=O)NC[C@@H]2CCN(CC(c3ccccc3)c3ccccc3)C(=O)[C@H](CCCN)N2)cc1 [Compound 234, (E)-N-(((3S,5S)-3-(3-aminopropyl)-1-(2,2-diphenylethyl)-2-oxo-1,4-diazepan-5-yl)methyl)-3-(4-cyanophenyl)acrylamide]
13 | < 100 | CCN(CC)CC[C@@H]1N[C@H](CNC(=O)c2ccc3cc(F)ccc3c2)CCN(CC(c2ccccc2)c2ccccc2)C1=O [Compound 25, N-(((3S,5S)-3-(2-(diethylamino)ethyl)-1-(2,2-diphenylethyl)-2-oxo-1,4-diazepan-5-yl)methyl)-6-fluoro-2-naphthamide]
14 | < 1000 | O=C(/C=C/c1ccc(Cl)cc1)NC[C@@H]1CCN(CC(c2ccccc2)c2ccccc2)C(=O)[C@H](CCC2CCCCC2)N1 [Compound 322, (E)-3-(4-chlorophenyl)-N-(((3S,5S)-3-(2-cyclohexylethyl)-1-(2,2-diphenylethyl)-2-oxo-1,4-diazepan-5-yl)methyl)acrylamide]
15 | < 100 | N=C(N)NCCC[C@@H]1N[C@H](CNC(=O)/C=C/c2ccccc2F)CCN(CC(c2ccccc2)c2ccccc2)C1=O [Compound 194, (E)-N-(((3S,5S)-1-(2,2-diphenylethyl)-3-(3-guanidinopropyl)-2-oxo-1,4-diazepan-5-yl)methyl)-3-(2-fluorophenyl)acrylamide]
16 | < 100 | NCCC[C@@H]1N[C@H](CNC(=O)/C=C/c2ccc(F)cc2)CCN(CC(c2ccccc2)c2ccccc2)C1=O [Compound 220, (E)-N-(((3S,5S)-3-(3-aminopropyl)-1-(2,2-diphenylethyl)-2-oxo-1,4-diazepan-5-yl)methyl)-3-(4-fluorophenyl)acrylamide]
17 | < 1000 | O=C(/C=C/c1ccc(Cl)cc1)NC[C@@H]1CCN(CC(c2ccccc2)c2ccccc2)C(=O)[C@H](Cc2ccccc2)N1 [Compound 324, (E)-N-(((3S,5S)-3-benzyl-1-(2,2-diphenylethyl)-2-oxo-1,4-diazepan-5-yl)methyl)-3-(4-chlorophenyl)acrylamide]
18 | < 1000 | N=C(N)NCCC[C@@H]1N[C@H](CNC(=O)/C=C/c2ccc(O)cc2)CCN(CC(c2ccccc2)c2ccccc2)C1=O [Compound 169, (E)-N-(((3S,5S)-1-(2,2-diphenylethyl)-3-(3-guanidinopropyl)-2-oxo-1,4-diazepan-5-yl)methyl)-3-(4-hydroxyphenyl)acrylamide]
19 | < 1000 | NCC[C@@H]1N[C@H](CNC(=O)c2ccc3cc(F)ccc3c2)CCN(CC(c2ccccc2)c2ccccc2)C1=O [Compound 31, N-(((3S,5S)-3-(2-aminoethyl)-1-(2,2-diphenylethyl)-2-oxo-1,4-diazepan-5-yl)methyl)-6-fluoro-2-naphthamide]
20 | < 1000 | NCCC[C@@H]1N[C@H](CNC(=O)/C=C/c2ccc3ccccc3c2)CCN(CC(c2ccccc2)c2ccccc2)C1=O [Compound 235, (E)-N-(((3S,5S)-3-(3-aminopropyl)-1-(2,2-diphenylethyl)-2-oxo-1,4-diazepan-5-yl)methyl)-3-(naphthalen-2-yl)acrylamide]
21 | < 1000 | Cc1ccc(C(=O)NC[C@@H]2CCN(CC(c3ccccc3)c3ccccc3)C(=O)[C@H](CCCN)N2)cc1C [Compound 223, N-(((3S,5S)-3-(3-aminopropyl)-1-(2,2-diphenylethyl)-2-oxo-1,4-diazepan-5-yl)methyl)-3,4-dimethylbenzamide]
22 | < 100 | NC[C@@H]1N[C@H](CNC(=O)/C=C/c2ccc(Cl)cc2)CCN(CC(c2ccccc2)c2ccccc2)C1=O [Compound 275, (E)-N-(((3S,5S)-3-(aminomethyl)-1-(2,2-diphenylethyl)-2-oxo-1,4-diazepan-5-yl)methyl)-3-(4-chlorophenyl)acrylamide]

— patent EP2257297B1, “COMPOUNDS FOR USE IN THE TREATMENT OF ACNE, SEBORRHOEA AND SEBHORROEIC DERMATITIS, OR FOR REDUCING SEBUM SECRETION” (priority 2008, dated 2009)
